Laboratory results reported in US11015216B2, “Substituted imidazo[1,2-a]pyrazines as luciferase substrates” (PROMEGA CORPORATION, priority 2016, dated 2021).

What was measured:
luciferase = assay: Additional luciferase substrate assay, compared to known analogue C-1 (Table 3); format: biochemical; conditions: relative to C-1 (=1)
Protocol: (§1) Luminescence Assay Procedure: Each compound to be screened was dissolved in DMSO (5 mM) and then further diluted to 100 uM in NANO-GLOR Luciferase Assay Buffer. Each diluted substrate was then combined in equal volumes with purified NanoLuc® Luciferase diluted into CO2 independent media+10% FBS. Initial light output for each substrate was measured in a GloMax®-Multi+ luminometer three minutes after substrate addition and then at five minute intervals as a means to determine signal half-life.
The compounds of formula (I) were also evaluated for their ability to be luciferase substrates in an additional assay.

NanoLuc® Luciferase = NanoLuc® Luciferase (Oplophorus gracilirostris, UniProt Q9GV45, A31E/A60N/A81I/F95D/I117V/K70R/L54V/L99Q/M102K/N193R/P142E/Q151K/Q38R/Q45L/V71I/Y165I); format: biochemical; conditions: ratio to coelenterazine (=1); for I (relative light units, ratio in comparison to native coelenterazine): initial light output three minutes after substrate addition; for Half-life (signal half-life, ratio in comparison to native coelenterazine): read at five minute intervals
Protocol: as §1
A subset of the synthesized coelenterazine analogues (compounds of formula (I)) were evaluated for their suitability as luciferase substrates. NANOLUC® luciferase was employed for the screening because it is a small (19 kDa), stable, and particularly bright enzyme.

NanoLuc® Luciferase, sequence (Q9GV45 other isoform, or with tags, fused parts or gaps with the stated changes): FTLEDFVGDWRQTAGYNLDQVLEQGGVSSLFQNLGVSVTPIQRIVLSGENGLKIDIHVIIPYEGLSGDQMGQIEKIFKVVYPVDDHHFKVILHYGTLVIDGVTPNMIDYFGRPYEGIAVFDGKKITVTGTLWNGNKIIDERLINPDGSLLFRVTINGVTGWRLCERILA

Row | SMILES | RLU (@100 uM) (luciferase) | I (relative light units, ratio in comparison to native coelenterazine) (NanoLuc® Luciferase) | Half-life (signal half-life, ratio in comparison to native coelenterazine) (NanoLuc® Luciferase)
1 | O=c1c(Cc2ccc(F)cc2)nc2c(Cc3ccccc3)[nH]c(-c3ccccc3)cn1-2 [Compound 2] | 0.96 | 40 | 0.16
2 | Nc1ccc(Cc2nc3c(Cc4ccccc4)[nH]c(-c4ccccc4)cn-3c2=O)cc1 [Compound 9] | 0.025 | 1.041 | 0.93
3 | O=c1c(Cc2cn3ccsc3n2)nc2c(Cc3ccccc3)[nH]c(-c3ccccc3)cn1-2 [Compound 80] | 0.052 | 2.166 | 1.62
4 | COc1ccc(Cc2nc3c(Cc4ccccc4)[nH]c(-c4ccccc4)cn-3c2=O)cn1 [Compound 71] | 0.65 | 27.083 | 0.14
5 | O=C(O)c1ccc(Cc2nc3c(Cc4ccccc4)[nH]c(-c4ccccc4)cn-3c2=O)cc1 [Compound 10] | 0.0034 | 0.142 | 1.02
6 | Cn1cc(Cc2nc3c(Cc4ccccc4)[nH]c(-c4ccccc4)cn-3c2=O)c(=O)n(C)c1=O [Compound 16] | 0.0001 | 0.0042 | 0.005
7 | CC(C)(C)OC(=O)Nc1cccc(Cc2nc3c(Cc4ccccc4)[nH]c(-c4ccccc4)cn-3c2=O)c1 [Compound 23] | 0.001 |  | 
8 | O=c1c(Cc2cccc(CO)c2)nc2c(Cc3ccccc3)[nH]c(-c3ccccc3)cn1-2 [Compound 54] | 0.04 |  | 
9 | O=c1c(Cc2ccc(C(F)(F)F)o2)nc2c(Cc3ccccc3)[nH]c(-c3ccccc3)cn1-2 [Compound 41] | 0.82 |  | 
10 | COc1ccc(Cc2nc3c(Cc4ccccc4)[nH]c(-c4ccccc4)cn-3c2=O)s1 [Compound 24] | 0.68 |  | 
11 | COc1cccc(Cc2nc3c(Cc4ccccc4)[nH]c(-c4ccccc4)cn-3c2=O)c1 [Compound 17] | 0.83 |  | 
12 | COCc1cccc(Cc2nc3c(Cc4ccccc4)[nH]c(-c4ccccc4)cn-3c2=O)c1 [Compound 53] | 0.47 |  | 
13 | COc1ccc(Cc2nc3c(Cc4ccccc4)[nH]c(-c4ccccc4)cn-3c2=O)cc1F [Compound 21] | 0.32 |  | 
14 | CCOP(=O)(OCC)c1nc2c(Cc3ccccc3)[nH]c(-c3ccccc3)cn-2c1=O [Compound 1, diethyl (8-benzyl-3-oxo-6-phenyl-3,7-dihydroimidazo[1,2-a]pyrazin-2-yl)phosphonate] | 0.00048 |  | 
15 | O=c1c(Cc2cccc3c2oc2ccccc23)nc2c(Cc3ccccc3)[nH]c(-c3ccccc3)cn1-2 [Compound 28] | 0.01 |  | 
16 | COCc1ccc(Cc2nc3c(Cc4ccccc4)[nH]c(-c4ccccc4)cn-3c2=O)s1 [Compound 52] | 0.45 |  | 
17 | CCCCCCCCCCCCc1nc2c(Cc3ccccc3)[nH]c(-c3ccccc3)cn-2c1=O [Compound 35] | 0.0005 |  | 
18 | CS(=O)(=O)Nc1cccc(Cc2nc3c(Cc4ccccc4)[nH]c(-c4ccccc4)cn-3c2=O)c1 [Compound 49] | 0.002 |  | 
19 | O=c1c(Cc2ccc(-c3cccs3)s2)nc2c(Cc3ccccc3)[nH]c(-c3ccccc3)cn1-2 [Compound 38] | 0.054 |  | 
20 | O=c1c(Cc2ccc(C3CCCCC3)s2)nc2c(Cc3ccccc3)[nH]c(-c3ccccc3)cn1-2 [Compound 37] | 0.05 |  | 
21 | O=c1c(Cc2ccc3c(c2)OCO3)nc2c(Cc3ccccc3)[nH]c(-c3ccccc3)cn1-2 [Compound 59] | 0.72 |  | 
22 | CCCSc1ncc(Cc2nc3c(Cc4ccccc4)[nH]c(-c4ccccc4)cn-3c2=O)cn1 [Compound 56] | 0.0098 |  | 
23 | CN(C)c1cccc(Cc2nc3c(Cc4ccccc4)[nH]c(-c4ccccc4)cn-3c2=O)c1 [Compound 51] | 0.49 |  | 
24 | O=c1c(Cc2ccco2)nc2c(Cc3ccccc3)[nH]c(-c3ccccc3)cn1-2 [Compound C-1, 8-benzyl-2-(furan-2-ylmethyl)-6-phenylimidazo[1,2-a]pyrazin-3(7H)-one, reference compound] | 1 |  | 
25 | C=CCOc1ccc(Cc2nc3c(Cc4ccccc4)[nH]c(-c4ccccc4)cn-3c2=O)cc1OC [Compound 31] | 0.054 |  | 
26 | COCc1cc(Cc2nc3c(Cc4ccccc4)[nH]c(-c4ccccc4)cn-3c2=O)ccc1OC [Compound 50] | 0.023 |  | 
27 | O=c1c(Cc2ccc(-c3ccccn3)s2)nc2c(Cc3ccccc3)[nH]c(-c3ccccc3)cn1-2 [Compound 34] | 0.02 |  | 

Row | SMILES | RLU (@100 uM) (luciferase) | I (relative light units, ratio in comparison to native coelenterazine) (NanoLuc® Luciferase) | Half-life (signal half-life, ratio in comparison to native coelenterazine) (NanoLuc® Luciferase)
28 | O=c1c(C/C=C/c2ccccc2)nc2c(Cc3ccccc3)[nH]c(-c3ccccc3)cn1-2 [Compound 29] | 0.13 |  | 
29 | COCc1ccc(Cc2nc3c(Cc4ccccc4)[nH]c(-c4ccccc4)cn-3c2=O)o1 [Compound 42] | 0.52 |  | 
30 | O=C(O)c1cccc(Cc2nc3c(Cc4ccccc4)[nH]c(-c4ccccc4)cn-3c2=O)c1 [Compound 47] | 0.013 |  | 
31 | CSc1cccc(Cc2nc3c(Cc4ccccc4)[nH]c(-c4ccccc4)cn-3c2=O)c1 [Compound 58] | 0.47 |  | 
32 | Oc1ccc(Cc2nc3c(Cc4ccccc4)nc(-c4ccc(O)cc4)cn3c2O)cc1 [coelenterazine, reference compound] |  | 1 | 1
33 | COc1cc(Cc2nc3c(Cc4ccccc4)[nH]c(-c4ccccc4)cn-3c2=O)ccc1F [Compound 18] | 0.4 |  | 
34 | O=c1c(C=Cc2ccccc2)nc2c(Cc3ccccc3)[nH]c(-c3ccccc3)cn1-2 [Compound 86] | 0.0002 |  | 
35 | Cn1cnnc1Sc1ccc(Cc2nc3c(Cc4ccccc4)[nH]c(-c4ccccc4)cn-3c2=O)o1 [Compound 33] | 0.017 |  | 
36 | Cn1c(Cc2nc3c(Cc4ccccc4)[nH]c(-c4ccccc4)cn-3c2=O)cc2sccc21 [Compound 85] | 0.038 |  | 
37 | O=c1c(Cc2ccc(-c3ccccc3)cc2)nc2c(Cc3ccccc3)[nH]c(-c3ccccc3)cn1-2 [Compound 26] | 0.046 |  | 
38 | O=c1c(Cc2c(F)c(F)c(F)c(F)c2F)nc2c(Cc3ccccc3)[nH]c(-c3ccccc3)cn1-2 [Compound 43] | 0.052 |  | 
39 | CN(C)Oc1cccc(Cc2nc3c(Cc4ccccc4)[nH]c(-c4ccccc4)cn-3c2=O)c1 [Compound 60] | 0.00038 |  | 
40 | CC(C)Cc1ccc(Cc2nc3c(Cc4ccccc4)[nH]c(-c4ccccc4)cn-3c2=O)s1 [Compound 39] | 0.29 |  | 
41 | COc1cc(Cc2nc3c(Cc4ccccc4)[nH]c(-c4ccccc4)cn-3c2=O)ccc1O [Compound 32] | 0.052 |  | 
42 | O=c1c(CC2=Cc3ccccc3OC2)nc2c(Cc3ccccc3)[nH]c(-c3ccccc3)cn1-2 [Compound 27] | 0.1 |  | 
43 | Nc1cccc(Cc2nc3c(Cc4ccccc4)[nH]c(-c4ccccc4)cn-3c2=O)c1 [Compound 25] | 0.15 |  | 
44 | COCCOc1cccc(Cc2nc3c(Cc4ccccc4)[nH]c(-c4ccccc4)cn-3c2=O)c1 [Compound 62] | 0.057 |  | 
45 | O=c1c(Cc2cnccn2)nc2c(Cc3ccccc3)[nH]c(-c3ccccc3)cn1-2 [Compound 84] | 0.003 |  | 
46 | NCc1cccc(Cc2nc3c(Cc4ccccc4)[nH]c(-c4ccccc4)cn-3c2=O)c1 [Compound 48] | 0.0013 |  | 
47 | O=c1c(Cc2ccncc2)nc2c(Cc3ccccc3)[nH]c(-c3ccccc3)cn1-2 [Compound 36] | 0.0017 |  | 
48 | CCOc1cccc(Cc2nc3c(Cc4ccccc4)[nH]c(-c4ccccc4)cn-3c2=O)c1 [Compound 61] | 0.49 |  | 
49 | O=c1c(Cc2cc(C(F)(F)F)cc(C(F)(F)F)c2)nc2c(Cc3ccccc3)[nH]c(-c3ccccc3)cn1-2 [Compound 44] | 0.019 |  | 
50 | Cn1nc(-c2ccc(Cc3nc4c(Cc5ccccc5)[nH]c(-c5ccccc5)cn-4c3=O)s2)cc1C(F)(F)F [Compound 40] | 0.0042 |  | 
51 | Cn1nc(C(F)(F)F)c(Cc2nc3c(Cc4ccccc4)[nH]c(-c4ccccc4)cn-3c2=O)c1Cl [Compound 45] | 0.0012 |  | 
52 | CC(C)(C)OC(=O)Nc1ccc(Cc2nc3c(Cc4ccccc4)[nH]c(-c4ccccc4)cn-3c2=O)cc1 [Compound 30] | 0.001 |  | 
53 | COc1ccc(Cc2nc3c(Cc4ccccc4)[nH]c(-c4ccccc4)cn-3c2=O)cc1OC [Compound 57] | 0.063 |  | 
